Bounds are passed on as bounds.

The IC50 is the concentration at which inhibition is half-maximal.

Sequence of α-glucosidase (P53341 whole entry): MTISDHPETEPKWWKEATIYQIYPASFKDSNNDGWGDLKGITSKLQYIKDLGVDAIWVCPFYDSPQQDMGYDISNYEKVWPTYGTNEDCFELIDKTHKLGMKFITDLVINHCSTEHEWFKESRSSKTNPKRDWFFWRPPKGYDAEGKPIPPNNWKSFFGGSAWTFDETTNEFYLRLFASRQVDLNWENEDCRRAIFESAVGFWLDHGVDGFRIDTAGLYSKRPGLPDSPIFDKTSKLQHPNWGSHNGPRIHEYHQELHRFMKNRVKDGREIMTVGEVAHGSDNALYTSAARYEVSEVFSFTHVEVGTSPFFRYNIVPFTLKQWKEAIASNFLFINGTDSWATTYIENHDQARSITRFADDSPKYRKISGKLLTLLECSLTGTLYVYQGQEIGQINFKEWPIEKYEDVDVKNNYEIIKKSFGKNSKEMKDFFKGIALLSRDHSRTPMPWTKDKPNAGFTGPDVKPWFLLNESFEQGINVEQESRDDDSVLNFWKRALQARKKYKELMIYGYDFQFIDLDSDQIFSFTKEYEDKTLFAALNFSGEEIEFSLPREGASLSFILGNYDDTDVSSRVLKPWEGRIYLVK

One assay addresses α-glucosidase (Saccharomyces cerevisiae, UniProt P53341). The experiment in a line: biochemical.
Settings: not given
Regarding `CC[C@H](C)C[C@@H](C)/C=C(\C)[C@@H]1O[C@H](c2c(O)c(-c3ccc(O)cc3)cn(C)c2=O)CC[C@H]1C` [Compound 3, (–)-sambutoxin], the IC50 was found to be 16.9 ± 0.6 µM.

`CCC(C)CC(C)C=C(C)C1OC(c2c(O)c(-c3ccccc3)cn(C)c2=O)CCC1C` (stereo not drawn) [Compound 1, Sambutoxin A] yielded an IC50 of 12.6 ± 0.9 µM. `CCC(C)CC(C)C=C(C)C1OC(c2c(O)c(-c3ccc(O)cc3)cn(C)c2=O)CC=C1C` (stereo not drawn) [Compound 2, Sambutoxin B] returned an IC50 of 37.4 ± 1.4 µM.

Still in this assay, the particulars now being: positive control 1-deoxynojirimycin; DMSO blank; read-out: α-glucosidase inhibitory activity IC50.
As for `COC1=CC(=O)C(C)(O)C(O)C1C` (stereo not drawn) [Compound 11, Talaketides E], the IC50 is over 100 µM.

As to `COC1=CC(=O)C(C)(O)C(O)C1C` (stereo not drawn) [Compound 12, Talaketides F], the IC50 was over 100 µM.

The assay is the same for the next values; noted with them: read-out: α-glucosidase inhibitory activity IC50.
In the case of `COC1=CC(=O)C(C)(O)C1(O)C(C)=O` (stereo not drawn) [Compound 8, Talaketides B], the IC50 was over 100 µM.

`CCC(C)C(=O)OC1(C)C(=O)C(C)=C(OC)C1O` (stereo not drawn) [Compound 7, Talaketides A]: the 50% inhibitory concentration (IC50) was over 100 µM.

With `COC1=CC(=O)C(C)(O)C(O)C1C` (stereo not drawn) [Compound 10, Talaketides D], the IC50 was over 100 µM. For the compound `C/C=C/[C@@H]1[C@H]2C[C@@H](C)CC[C@@H]2C(C)=C[C@H]1C(=O)c1c(O)c(-c2ccc(O)cc2)c[nH]c1=O` [Compound 4, ilicicolin H], the IC50 was found to be 16.5 ± 0.7 µM.

For `C/C=C/[C@@H]1Oc2c(-c3ccccc3)c[nH]c(=O)c2[C@@H]2[C@H]1CCC[C@H]2C` [Compound 5, deoxyleporin B], the IC50 was 57.3 ± 1.3 µM.

Turning to `C/C=C/[C@@H]1Oc2c(-c3ccccc3)cn(O)c(=O)c2[C@@H]2[C@H]1CCC[C@H]2C` [Compound 6, leporine B], the concentration for half-maximal inhibition (IC50) is over 100 µM.

In the case of `CCC(C)C(=O)OC1(C)C(=O)C(C)=C(OC)CC1OC` (stereo not drawn) [Compound 9, Talaketides C], the IC50 was over 100 µM.
